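These data come from cells grown in 96-well plates and exposed to compound for 48 hours at five concentrations. TGI: total growth inhibition.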
Columns and labels:
Assay in all cases: NCI tumour cell line growth inhibition, 48 h
SN12K1 renal = test system: SN12K1 renal
DLD-1 colon = test system: DLD-1 colon
XF 498 CNS = test system: XF 498 CNS
HOP-18 NSCLC = test system: HOP-18 NSCLC
P388/ADR leukemia = test system: P388/ADR leukemia
P388 leukemia = test system: P388 leukemia
LXFL 529 NSCLC = test system: LXFL 529 NSCLC
M19-MEL melanoma = test system: M19-MEL melanoma
KM20L2 colon = test system: KM20L2 colon
SNB-78 CNS = test system: SNB-78 CNS
RXF-631 renal = test system: RXF-631 renal

Compound | TGI (SN12K1 renal) [µM] | TGI (DLD-1 colon) [µM] | TGI (XF 498 CNS) [µM] | TGI (HOP-18 NSCLC) [µM] | TGI (P388/ADR leukemia) [µM] | TGI (P388 leukemia) [µM] | TGI (LXFL 529 NSCLC) [µM] | TGI (M19-MEL melanoma) [µM] | TGI (KM20L2 colon) [µM] | TGI (SNB-78 CNS) [µM] | TGI (RXF-631 renal) [µM]
CC[C@]1(O)C[C@H]2CN(CCc3c([nH]c4ccccc34)[C@@](C(=O)OC)(c3cc4c(cc3OC)N(C=O)[C@H]3[C@@](O)(C(=O)OC)[C@H](OC(C)=O)[C@]5(CC)C=CCN6CC[C@]43[C@@H]65)C2)C1 | 0.134 | 144 | 2.5 | 87.3 | 35.5 | 7.83 | 7.81 | 169 | 0.206 | 109 | 
CC1(C)CCC[C@@]2(C)C1CCC1(C)C(CCc3ccoc3)/C(=C/OS(=O)(=O)O)CCC12 (some centres not stated) (tested in a mixture with another compound) |  | > 100 | > 100 | > 100 |  |  | > 100 | > 100 | > 100 | > 100 | > 100
CCC(C)n1c(C)nc2c1C(=O)c1ccccc1C2=O (configuration not stated) |  | > 100 | > 100 |  |  |  | > 100 | 37.5 | > 100 | > 100 | 
Cc1ccccc1C(=O)c1c(O)c2c(c(O)c1Br)CCCC2 |  | 58.9 | 36.6 | 25.2 |  |  | 26.9 | 29.4 | 41.4 | 47.5 | 
CCNC(C)Cc1ccccc1 (configuration not stated) |  | > 100 |  | > 100 |  |  | > 100 |  | > 100 | > 100 | 
CC(=O)OC12/C(=N/O)CCCCCC1c1ccccc12 (configuration not stated) |  |  | > 100 | > 100 |  |  | > 100 | > 100 | > 100 | > 100 | 
CCc1ccc(N=Cc2cc(OC)c(OC)c(OC)c2)cc1 |  | > 100 | > 100 | > 100 |  |  | > 100 | > 100 | > 100 | > 100 | 
COC1=C2CC(C)CC(OC)C(O)C(C)/C=C(\C)C(OC(N)=O)C(OC)/C=C\C=C(/C)C(=O)NC(=C(C=NC(C)(C)C)C1=O)C2=O (configuration not stated) | 31.2 | 45.7 | 3.09 | 33.7 | 62.5 | 8.79 |  | 15.6 | 14.6 | 46.2 | 
CN(C)CCOc1cccc2c1C(=O)c1ccccc1C2=O |  | 34.5 | 33 | 46.9 |  |  | 43.6 | 17.9 | 46.8 | 38.2 | 
O=[N+]([O-])c1nc(-c2ccccn2)[nH]c1[N+](=O)[O-] |  | > 100 | > 100 |  |  |  | > 100 | > 100 | > 100 | > 100 | > 100
